Reference: PubChem BioAssay AID248 (DTP/NCI, 2004)
Where “and” joins values, the source holds several entries; their conditions need not be identical. Identical values can stand only once. Toxic doses and inconclusive results are not listed.

System: L1210 leukemia ip in BDF1 mice, survival T/C
Experiment: NCI In Vivo Anticancer Drug Screen. Data for tumor model L1210 Leukemia (intraperitoneal) in B6D2F1 (BDF1) mice
Settings: endpoint: mean survival time, higher = longer survival
How it was run: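 Transplantable tumor model; survival measured in treated vs vehicle control mice. Value = treated/control.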

[1] = dose: 100.0 mg/kg/injection, schedule: Q01DX001 (ip), vehicle: saline
[2] = dose: 200.0 mg/kg/injection, schedule: Q01DX001 (ip), vehicle: saline
[3] = dose: 400.0 mg/kg/injection, schedule: Q01DX001 (ip), vehicle: saline
[4] = dose: 100.0 mg/kg/injection, schedule: Q01DX001 (ip), vehicle: carboxymethylcellulose (CMC)
[5] = dose: 200.0 mg/kg/injection, schedule: Q01DX001 (ip), vehicle: carboxymethylcellulose (CMC)
[6] = dose: 400.0 mg/kg/injection, schedule: Q01DX001 (ip), vehicle: carboxymethylcellulose (CMC)
[7] = dose: 100.0 mg/kg/injection, schedule: Q01DX009 (ip), vehicle: saline with Tween-80
[8] = dose: 200.0 mg/kg/injection, schedule: Q01DX009 (ip), vehicle: saline with Tween-80
[9] = dose: 400.0 mg/kg/injection, schedule: Q01DX009 (ip), vehicle: saline with Tween-80
[10] = dose: 75.0 mg/kg/injection, schedule: Q01DX001 (ip), vehicle: other
[11] = dose: 150.0 mg/kg/injection, schedule: Q01DX001 (ip), vehicle: other

## COc1ccc(C2=NC(=O)C(C(=O)c3ccccc3)O2)cc1 (configuration not stated)
[1]
  T/C: 94 % of control
[2]
  T/C: 96 % of control
[3]
  T/C: 96 % of control

## C[N+](C)(C)CSSC[N+](C)(C)C
dose: 12.5 mg/kg/injection, schedule: Q04DX003 (ip), vehicle: saline
  T/C: 92 % of control
dose: 25.0 mg/kg/injection, schedule: Q04DX003 (ip), vehicle: saline
  T/C: 87 % of control
dose: 50.0 mg/kg/injection, schedule: Q04DX003 (ip), vehicle: saline
  T/C: 93 % of control

## CCOC(=O)/C(=C\c1ccc2c(c1)OCO2)NC(=O)c1ccccc1
dose: 50.0 mg/kg/injection, schedule: Q01DX009 (ip), vehicle: saline
  T/C: 102 % of control
dose: 100.0 mg/kg/injection, schedule: Q01DX009 (ip), vehicle: saline
  T/C: 102 % of control
dose: 100.0 mg/kg/injection, schedule: Q04DX003 (ip), vehicle: saline
  T/C: 98 % of control
dose: 200.0 mg/kg/injection, schedule: Q01DX009 (ip), vehicle: saline
  T/C: 118 % of control
dose: 200.0 mg/kg/injection, schedule: Q04DX003 (ip), vehicle: saline
  T/C: 92 % of control
dose: 400.0 mg/kg/injection, schedule: Q01DX009 (ip), vehicle: saline
  T/C: 100 % of control
dose: 400.0 mg/kg/injection, schedule: Q04DX003 (ip), vehicle: saline
  T/C: 92 % of control

## CCCCCCCCCCSCCSCCCCCCCCCC
[4]
  T/C: 95 % of control
dose: 100.0 mg/kg/injection, schedule: Q04DX003 (ip), vehicle: saline with Tween-80
  T/C: 96 % of control
[5]
  T/C: 101 % of control
dose: 200.0 mg/kg/injection, schedule: Q04DX003 (ip), vehicle: saline with Tween-80
  T/C: 93 % of control
[6]
  T/C: 95 % of control
dose: 400.0 mg/kg/injection, schedule: Q04DX003 (ip), vehicle: saline with Tween-80
  T/C: 89 % of control

## O=C(Nc1cccc(Cl)c1)Nc1ccc(Cl)c(C(F)(F)F)c1
dose: 50.0 mg/kg/injection, schedule: Q01DX001 (ip), vehicle: carboxymethylcellulose (CMC)
  T/C: 94 % of control
[4]
  T/C: 105 % of control
[5]
  T/C: 100 % of control
[6]
  T/C: 102 % of control

## COC(=O)C1(C)COP(=O)(NC2CCCCC2)OC1 (configuration not stated)
[1]
  T/C: 94 % of control
[2]
  T/C: 97 % of control
[3]
  T/C: 108 % of control

## COc1cc(C2(O)C=C(C)C(=O)C=C2C)c(OC)cc1C (configuration not stated)
dose: 50.0 mg/kg/injection, schedule: Q01DX001 (ip), vehicle: Klucel (hydroxypropylcellulose) (HPC)
  T/C: 92 % of control
dose: 100.0 mg/kg/injection, schedule: Q01DX001 (ip), vehicle: Klucel (hydroxypropylcellulose) (HPC)
  T/C: 87 % of control
dose: 200.0 mg/kg/injection, schedule: Q01DX001 (ip), vehicle: Klucel (hydroxypropylcellulose) (HPC)
  T/C: 86 % of control

## CCCCOCN(C(=O)CCl)c1c(CC)cccc1CC
[7]
  T/C: 101 % of control
[8]
  T/C: 110 % of control
[9]
  T/C: 89 % of control

## COC(=O)C1CCCN(C)C1c1c[nH]c2ccccc12 (configuration not stated)
[10]
  T/C: 90 % of control
[11]
  T/C: 106 % of control

## O=C(O)CCNC(=S)Nc1ccc(S(=O)(=O)c2ccc(NC(=S)NCCC(=O)O)cc2)cc1
[1]
  T/C: 104 % of control
[2]
  T/C: 98 % of control
[3]
  T/C: 102 % of control

## CCNC(=O)Nc1ccc(C)cc1C
dose: 100.0 mg/kg/injection, schedule: Q01DX009 (ip), vehicle: Klucel (hydroxypropylcellulose) (HPC)
  T/C: 94 % of control
dose: 100.0 mg/kg/injection, schedule: Q04DX003 (ip), vehicle: Klucel (hydroxypropylcellulose) (HPC)
  T/C: 96 % of control
dose: 200.0 mg/kg/injection, schedule: Q01DX009 (ip), vehicle: Klucel (hydroxypropylcellulose) (HPC)
  T/C: 103 % of control
dose: 200.0 mg/kg/injection, schedule: Q04DX003 (ip), vehicle: Klucel (hydroxypropylcellulose) (HPC)
  T/C: 96 % of control
dose: 400.0 mg/kg/injection, schedule: Q01DX009 (ip), vehicle: Klucel (hydroxypropylcellulose) (HPC)
  T/C: 105 % of control
dose: 400.0 mg/kg/injection, schedule: Q04DX003 (ip), vehicle: Klucel (hydroxypropylcellulose) (HPC)
  T/C: 95 % of control

## O=c1[nH]cnc2c1ncn2Cc1ccccc1
dose: 100.0 mg/kg/injection, schedule: Q01DX001 (ip), vehicle: saline with Tween-80
  T/C: 104 % of control
dose: 200.0 mg/kg/injection, schedule: Q01DX001 (ip), vehicle: saline with Tween-80
  T/C: 102 % of control
dose: 400.0 mg/kg/injection, schedule: Q01DX001 (ip), vehicle: saline with Tween-80
  T/C: 96 % of control

## COc1ccc(NC(=S)NC(=O)COc2ccccc2)cc1
[7]
  T/C: 101 % of control and 107 % of control
dose: 100.0 mg/kg/injection, schedule: Q04DX002 (ip), vehicle: saline with Tween-80
  T/C: 107 % of control and 87 % of control
[8]
  T/C: 102 % of control
dose: 200.0 mg/kg/injection, schedule: Q04DX002 (ip), vehicle: saline with Tween-80
  T/C: 100 % of control and 90 % of control
[9]
  T/C: 89 % of control
dose: 400.0 mg/kg/injection, schedule: Q04DX002 (ip), vehicle: saline with Tween-80
  T/C: 106 % of control

## COc1cc(C=Nc2ccc(-c3nc(Cc4ccccc4)sc3C)cc2)ccc1N(CCCl)CCCl
dose: 4.0 mg/kg/injection, schedule: Q01DX009 (ip), vehicle: saline
  T/C: 102 % of control
dose: 6.0 mg/kg/injection, schedule: Q01DX009 (ip), vehicle: Klucel (hydroxypropylcellulose) (HPC)
  T/C: 109 % of control
dose: 6.0 mg/kg/injection, schedule: Q01DX009 (ip), vehicle: saline
  T/C: 103 % of control
dose: 8.0 mg/kg/injection, schedule: Q01DX009 (ip), vehicle: Klucel (hydroxypropylcellulose) (HPC)
  T/C: 112 % of control
dose: 8.0 mg/kg/injection, schedule: Q01DX009 (ip), vehicle: carboxymethylcellulose (CMC)
  T/C: 124 % of control
dose: 8.0 mg/kg/injection, schedule: Q01DX009 (ip), vehicle: saline
  T/C: 102 % of control
dose: 13.0 mg/kg/injection, schedule: Q01DX001 (ip), vehicle: Klucel (hydroxypropylcellulose) (HPC)
  T/C: 109 % of control
dose: 13.0 mg/kg/injection, schedule: Q01DX001 (ip), vehicle: saline
  T/C: 93 % of control
dose: 13.0 mg/kg/injection, schedule: Q01DX009 (ip), vehicle: saline
  T/C: 100 % of control
dose: 20.0 mg/kg/injection, schedule: Q01DX001 (ip), vehicle: Klucel (hydroxypropylcellulose) (HPC)
  T/C: 113 % of control
dose: 20.0 mg/kg/injection, schedule: Q01DX001 (ip), vehicle: saline
  T/C: 91 % of control
dose: 20.0 mg/kg/injection, schedule: Q01DX009 (ip), vehicle: carboxymethylcellulose (CMC)
  T/C: 106 % of control
dose: 20.0 mg/kg/injection, schedule: Q01DX009 (ip), vehicle: saline
  T/C: 105 % of control
dose: 30.0 mg/kg/injection, schedule: Q01DX001 (ip), vehicle: Klucel (hydroxypropylcellulose) (HPC)
  T/C: 124 % of control
dose: 30.0 mg/kg/injection, schedule: Q01DX001 (ip), vehicle: saline
  T/C: 102 % of control
dose: 30.0 mg/kg/injection, schedule: Q01DX009 (ip), vehicle: Klucel (hydroxypropylcellulose) (HPC)
  T/C: 153 % of control
dose: 44.0 mg/kg/injection, schedule: Q01DX001 (ip), vehicle: carboxymethylcellulose (CMC)
  T/C: 122 % of control
dose: 45.0 mg/kg/injection, schedule: Q01DX001 (ip), vehicle: Klucel (hydroxypropylcellulose) (HPC)
  T/C: 121 % of control
dose: 45.0 mg/kg/injection, schedule: Q01DX001 (ip), vehicle: carboxymethylcellulose (CMC)
  T/C: 166 % of control
dose: 45.0 mg/kg/injection, schedule: Q01DX001 (ip), vehicle: saline
  T/C: 110 % of control
dose: 66.0 mg/kg/injection, schedule: Q01DX001 (ip), vehicle: saline
  T/C: 106 % of control
[1]
  T/C: 112 % of control and 124 % of control
dose: 150.0 mg/kg/injection, schedule: Q01DX001 (ip), vehicle: carboxymethylcellulose (CMC)
  T/C: 108 % of control
[5]
  T/C: 97 % of control

## O=c1[nH]c2nccnc2[nH]1
dose: 25.0 mg/kg/injection, schedule: Q01DX009 (ip), vehicle: water
  T/C: 91 % of control
dose: 50.0 mg/kg/injection, schedule: Q01DX009 (ip), vehicle: water
  T/C: 107 % of control
dose: 200.0 mg/kg/injection, schedule: Q01DX009 (ip), vehicle: water
  T/C: 96 % of control

## CN(C)C(=S)Sc1ccc([N+](=O)[O-])cc1
[10]
  T/C: 103 % of control
[11]
  T/C: 96 % of control
dose: 300.0 mg/kg/injection, schedule: Q01DX001 (ip), vehicle: other
  T/C: 91 % of control
